In ChEMBL document CHEMBL1126539, “Oxazole, thiazole, and imidazole derivatives of 2,6-di-tert-butylphenol as dual 5-lipoxygenase and cyclooxygenase inhibitors” (Bioorg Med Chem Lett, 1993):

Tests used:
RBL-1 [1] = assay: Compound was tested for its inhibitory activity against LTB4 (5-LO) formation in RBL-1 cells stimulated with the calcium ionophore A-23187; format: functional, cell-based; settings: Rattus norvegicus
RBL-1 [2] = assay: Compound was tested for its inhibitory activity against PGF-2 alpha (CO) formation in RBL-1 cells stimulated with the calcium ionophore A-23187; format: functional, cell-based; settings: Rattus norvegicus
Rattus norvegicus = assay: Compound was tested for inhibition of edema in the carrageenan foot-pad edema test; inactive; format: functional

| SMILES | IC50 (RBL-1 [1]) [nM] | IC50 (RBL-1 [2]) [nM] | Inhibition (Rattus norvegicus) [%] |
| --- | --- | --- | --- |
| CC(C)(C)c1cc(/C=C2\OC(N=C(N)N)=NC2=O)cc(C(C)(C)C)c1O | 1200 | 340 |  |
| CC(C)(C)c1cc(/C=C2\OC(=S)NC2=O)cc(C(C)(C)C)c1O | 840 | 1700 |  |
| CC(C)(C)c1cc(/C=C2\OC(=O)NC2=O)cc(C(C)(C)C)c1O | 2800 | 650 |  |
| CN1C(=O)NC(=O)/C1=C/c1cc(C(C)(C)C)c(O)c(C(C)(C)C)c1 | 780 | 4600 | <25 |
| CC(C)(C)c1cc(/C=C2\SC(=N)NC2=O)cc(C(C)(C)C)c1O [DARBUFELONE] | 1200 | 110 |  |
| Cc1ccc(Cl)c(Nc2ccccc2C(=O)O)c1Cl [MECLOFENAMATE SODIUM] | 24000 |  |  |

Continued, in another order:

| IC50 (RBL-1 [1]) [nM] | IC50 (RBL-1 [2]) [nM] | SMILES | Inhibition (Rattus norvegicus) [%] |
| --- | --- | --- | --- |
| 1300 | 2100 | CN1C(NC(=N)N)=NC(=O)/C1=C/c1cc(C(C)(C)C)c(O)c(C(C)(C)C)c1 | <25 |
| 910 | 83 | CC(C)(C)c1cc(/C=C2\SC(N=C(N)N)=NC2=O)cc(C(C)(C)C)c1O |  |
| 380 | 12 | CC(C)(C)c1cc(/C=C2\SC(=S)NC2=O)cc(C(C)(C)C)c1O |  |
|  | 350 | CC(C)(C)c1cc(/C=C2\SC(=O)NC2=O)cc(C(C)(C)C)c1O |  |
| 170 | 790 | CN1C(=S)NC(=O)/C1=C/c1cc(C(C)(C)C)c(O)c(C(C)(C)C)c1 | <25 |
